A word on the inhibition: it is how much of the control response was suppressed.

The structures appear in SMILES notation.

Common to all, as to format: cell-based
For experiment [1], the system named is IGROV1-R10 chemoresistant ovarian cancer cells. The experiment in a line: Real-time cellular activity by impedancemetry (xCELLigence). The settings on record: IGROV1-R10, 25 μM Pyridoclax + 5 μM ABT-737. The protocol:
(§1) FIG. 4 represents the effect of the association of Pyridoclax with ABT-737 on chemoresistant ovarian cancer cells IGROV1-R10 (top) and SKOV3 (bottom). Cells were concomitantly (A, E) or sequentially (B) exposed to 25 μM Pyridoclax and 5 μM ABT-737, and cellular effects were assessed either longitudinally (A, B, E) or after 24 h (C, D, F). [A, B, E] real time cellular activity assessed by impedancmetry (xCELLigence technology), after concomitant exposure (A, E) or sequential exposure (B; 24 h Pyridoclax, then ABT-737). [C]: Cellular morphology and DNA content histograms after a 24 h concomitant exposure. [D and F]: PARP and caspase 3 cleavage after a 24 h concomitant exposure.
Compound-mediated cytotoxicity was monitored using Real-Time Cell Analyzer multi-plate (RTCA MP) Instrument, xCELLigence System (Roche Applied Science, Mannheim, Germany). This system monitors cellular events in real time measuring electrical impedance across interdigitated micro-electrodes integrated on the bottom of tissue culture E-plates View (Roche). […] Thus, this index reflects changes in cell viability as described by Ke et al. (2011, Methods Mol Biol 740, 33-43). […] Impedance was continuously measured until the end of the treatment. Standard deviations of well replicates were analyzed with the RTCA Software.

Experiment [2] concerns IGROV1-R10 ovarian cancer cells. In words: PARP and caspase 3 cleavage by western blot. Also on record: key to PARP cleavage: +: a little band corresponding to the 85 kDa cleaved form of PARP is observable on the western blot; ++: a band corresponding to the 85 kDa cleaved form of PARP is clearly observable on the western blot; +++: PARP in nearly completely cleaved. The protocol:
(§2) Exponentially growing cells were transfected by siRNA as described below, and after 48 h, cells were continuously exposed to (Het)aromatic oligosystems (10, 25 or 50 μM) dissolved in DMSO (<0.1% of total volume) for 4 to 24 supplementary hours.
Cells were seeded in 25 cm^2 flasks the day before to reach 30-50% confluency at the time of transfection. The transfection INTERFERin™ reagent (Polyplus Transfection, Strasbourg. France) was added to siRNA diluted in Opti-MEM® reduced serum medium (Invitrogen, Cergy-Pontoise, France) and complexes formation was allowed to proceed for 15 min at RT before being applied to cells. The final siRNA concentration in the flasks was 20 nM.
Cells were rinsed with ice-cold PBS, suspended in a lysis buffer [RIPA:NaCl 150 mM, Tris (pH 8) 50 mM, Triton X100 1%, PMSF 4 mM, EDTA 5 mM, NaF 10 mM, NaPPi 10 mM, Na3OV4 1 mM, aprotinin 0.5 μl/ml and 4.6 ml ultra pure water] and incubated on ice for 30 minutes. Lysates were collected after centrifugation (13200 g, 10 min, 4° C.) and protein concentrations were determined using the Bradford assay (Bio-Rad, Hercules, USA). 20 μg of protein were separated by SDS-PAGE on a 4-12% gradient polyacrylamide gel (Invitrogen, Cergy-Pontoise, France) and transferred to Hybond-PVDF membranes (Amersham, Orsay, France). After blocking non-specific binding sites for 1 hour at RT by 5% (w/v) non-fat dry milk in TBS with 0.1% (v/v) Tween20 (T-TBS), the membranes were incubated overnight at 4° C. with the following rabbit monoclonal antibody: PARP, caspase-3 and Bcl-xL, Bim (Cell Signaling Technology, Ozyme, Saint-Quentin-en-Yvelines, France), Mcl-1 (Santa Cruz, Le Perray-en-Yvelines, France), HSP-70, Noxa (Calbiochem, Fontenay-sous-Bois, France), (Cell Signalling) and Actin (Sigma-Aldrich, Saint-Quentin Fallavier, France). Membranes were then washed with T-TBS and incubated for 1 hour with the appropriate horseradish peroxidase-conjugated anti-rabbit or anti-mouse (Amersham, Orsay, France) secondary antibodies. Revelation was done using a luminescent Image Analyzer (GE Healthcare, Orsay, France).
(A western blot detects proteins with antibodies after separation by electrophoresis.)

For experiment [3], the system named is IGROV1-R10 chemoresistant ovarian cancer cells. In words: Pyridoclax / ABT-737 association, apoptotic cell death. The procedure:
as §1
(§3) Adherent and floating cells were pooled, washed with 1×PBS and centrifuged at 200 g for 5 min before staining by Annexin V, propidium iodide or both, as recommended by the manufacturer (Roche Diagnostic, Indianapolis, USA). Briefly, 100 μl of Annexin V—Flit or propidium iodide or both were added on the cells pellet (10^6 cells) and incubated 15 minutes at room temperature in obscurity. 500 μl of sample buffer was then added on the suspensions that were thereafter analyzed using a Gallios flow cytometer (Beckman Coulter, Roissy, France) and cell cycle distribution was determined using Kaluza acquisition software (Beckman Coulter).
Cells were rinsed with ice-cold PBS, suspended in a lysis buffer [RIPA:NaCl 150 mM, Tris (pH 8) 50 mM, Triton X100 1%, PMSF 4 mM, EDTA 5 mM, NaF 10 mM, NaPPi 10 mM, Na3OV4 1 mM, aprotinin 0.5 μl/ml and 4.6 ml ultra pure water] and incubated on ice for 30 minutes. Lysates were collected after centrifugation (13200 g, 10 min, 4° C.) and protein concentrations were determined using the Bradford assay (Bio-Rad, Hercules, USA). 20 μg of protein were separated by SDS-PAGE on a 4-12% gradient polyacrylamide gel (Invitrogen, Cergy-Pontoise, France) and transferred to Hybond-PVDF membranes (Amersham, Orsay, France). […]

For another experiment, the target named is T1, Mcl-1/Puma interaction (Homo sapiens, UniProt Q07820).
T1 construct: expressed in transfected cells; host or cells: HeLa cells
T1 sequence (Q07820 whole entry): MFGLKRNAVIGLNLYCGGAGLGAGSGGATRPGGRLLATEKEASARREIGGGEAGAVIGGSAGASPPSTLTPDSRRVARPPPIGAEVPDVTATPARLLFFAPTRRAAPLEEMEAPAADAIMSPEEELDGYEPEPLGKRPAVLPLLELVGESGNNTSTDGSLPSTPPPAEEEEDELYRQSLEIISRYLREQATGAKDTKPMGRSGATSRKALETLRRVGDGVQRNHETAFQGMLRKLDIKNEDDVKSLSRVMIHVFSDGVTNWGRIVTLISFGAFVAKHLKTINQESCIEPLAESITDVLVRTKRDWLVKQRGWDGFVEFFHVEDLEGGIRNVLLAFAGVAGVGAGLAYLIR
The experiment in a line: BRET assay, Mcl-1/Puma interaction. Conditions: BRET in Hela cells, 16 hours. The protocol: Hela cells were seeded on 6-well plates and transfected with 200 ng/well of plasmid pRLuc-Bax, pRLuc-Puma or pRLuc-Noxa coding for BRET donors and 1 µg/well of peYFP-Bcl-xL or peYFP-Mcl-1 coding for BRET acceptors (or with pCMV-Bcl-xL or pCMV-Mcl-1 for control). Twenty-four hours after transfection, cells were trypsinized and re-seeded into white 96 well plate flat bottom, incubated for another day, and then treated with drugs for 16 hours at 10 μM. Light emission at 485 nm and 530 nm was measured consecutively using the Mithras fluorescence-luminescence detector LB 940 (Berthold) after adding the luciferase substrate, coelenterazine H (Uptima) at a final concentration of 5 μM. BRET ratios were calculated as described [Terrillon et al. (2003) Mol Endocrinol 17, 677-691, Vo et al. (2012) Eur J Med Chem., 286-93].
On the technique in general: In BRET a luciferase serves as donor, and the signal depends on an acceptor being close.

For experiment [4], the system named is IGROV1-R10 ovarian cancer cells. In words: DNA content histograms (sub-G1) by flow cytometry. The procedure:
as §2
Cells were seeded in 25 cm^2 flasks the day before to reach 30-50% confluency at the time of transfection. The transfection INTERFERin™ reagent (Polyplus Transfection, Strasbourg. France) was added to siRNA diluted in Opti-MEM® reduced serum medium (Invitrogen, Cergy-Pontoise, France) and complexes formation was allowed to proceed for 15 min at RT before being applied to cells. […]
as §3
(In general: A flow cytometer gives signals particle by particle.)

Experiment [5] shares this test system. In words: Annexin V/propidium iodide flow cytometry. The settings on record: IGROV1-R10, 10 nM siXL1 48 h then 25 μM Pyridoclax 24 h. The procedure:
as §3

The mark [6] stands for this setting: Molecule + Bcl-xL targeting siRNA.

`Cc1cc(-c2ncc(-c3cccnc3)cc2/C=C/c2ccccc2)cnc1-c1cccnc1` [Pyridoclax, 5,6′-di(pyridin-3-yl)-5′-methyl-3-((E)-styryl)-2,3′-bipyridine]: in experiment [1], the “cellular activity (impedancemetry)” value was “drastically decreased”. Besides, the “cleavage of PARP and caspase 3” value in experiment [2] (IGROV1-R10, Pyridoclax associated to siXL1) was “complete cleavage of PARP and caspase 3”. For the same molecule, the PARP cleavage result in experiment [2] (setting [6]) is “+++”. Besides, in experiment [3] (IGROV1-R10, 25 μM Pyridoclax + 5 μM ABT-737), the “cell death, combination with ABT-737” value is on record as “massive apoptotic cell death”. For the same molecule, the “cell death as single agent” value in experiment [3] (IGROV1-R10, single agent) is on record as “neither ABT-737 nor Pyridoclax induced cell death as single agents”. Besides, the “effect on Mcl-1/Puma interaction” value on Mcl-1/Puma interaction (10 μM) is reported as “able to disrupt”. Moreover, at Mcl-1/Puma interaction, the inhibition at 10 µM is roughly 50%. Further, the “sub-G1 Peak on the DNA content histogram” value in experiment [4] (IGROV1-R10, 10 nM siXL1 48 h then 25 μM Pyridoclax 24 h) is listed as “over 50%”. Also, in experiment [4] (IGROV1-R10, siXL1 + Pyridoclax), the “time after beginning of exposure at which apoptosis was observed” value is recorded as 2 to 4 h. Besides, the “events in sub-G1 fraction” value in experiment [4] (IGROV1-R10, siXL1 + Pyridoclax, after 4 h exposure) worked out at 37%. The “Sub-G1 (%)” value in experiment [4] (setting [6]) was 53.6%. Further, the “fraction of annexin V positive cells” value in experiment [5] amounted to 60%.

(Values after patent US10307410B2, “Mcl-1 modulating compounds for cancer treatment” (CENTRE REGIONAL DE LUTTE CONTRE LE CANCER FRANCOIS BACLESSE, priority 2014, dated 2019).)
